Assays:
Sphaerotheca fuliginea = assay: Example B: in vivo preventive test on Sphaerotheca fuliginea (powdery mildew on cucurbits); settings: table B; 500 ppm; gherkin plants; grading 12 days after contamination
Method: Example B: In Vivo Preventive Test on Sphaerotheca fuliginea (Powdery Mildew on Cucurbits) […] Gherkin plants (“Vert petit de Paris” variety), sown in starter cups on a 50/50 peat soil-pozzolana substrate and grown at 24° C., are treated at the Z11 cotyledon stage by spraying with the active ingredient prepared as described above. Plants, used as controls, are treated with the mixture of acetone/tween/DMSO/water not containing the active material. After 24 hours, the plants are contaminated by spraying the cotyledons with an aqueous suspension of Sphaerotheca fuliginea spores (100 000 spores per mL). The spores are collected from infected plants. The contaminated gherkin plants are incubated at about 20° C. and at 70-80% relative humidity. Grading (% of efficacy) is carried out 12 days after the contamination, in comparison with the control plants.

Alternaria brassicae = assay: Example D: in vivo preventive test on Alternaria brassicae (leaf spot on radish); settings: table D; 500 ppm; radish plants; grading 6 days after contamination
Method: Example D: In Vivo Preventive Test on Alternaria brassicae (Leaf Spot on Radish) […] Radish plants (“Pernod Clair” variety), sown in starter cups on a 50/50 peat soil pozzolana substrate and grown at 17° C., are treated at the cotyledon stage by spraying with the active ingredient prepared as described above. Plants, used as controls, are treated with the mixture of acetone/tween/DMSO/water not containing the active material. After 24 hours, the plants are contaminated by spraying the cotyledons with an aqueous suspension of Alternaria brassicae spores (50 000 spores per mL). The spores are collected from a 15-day-old culture. The contaminated radish plants are incubated at 20° C. and at 100% relative humidity. Grading (% of efficacy) is carried out 6 days after the contamination, in comparison with the control plants.

Uromyces appendiculatus = assay: Example G: in vivo preventive test on Uromyces appendiculatus (bean rust); settings: bean plants
Method: Example G: In Vivo Preventive Test on Uromyces appendiculatus (Bean Rust) […] Bean plants (“Saxa” variety), sown in starter cups on a 50/50 peat soil pozzolana substrate and grown at 24° C., are treated at the 2 leaf stage (9 cm height) by spraying with the active ingredient prepared as described above. Plants, used as controls, are treated with the mixture of acetone/tween/DMSO/water not containing the active material. After 24 hours, the plants are contaminated by spraying the leaves with an aqueous suspension of Uromyces appendiculatus spores (150 000 spores per mL). The spores are collected from infected plants and are suspended in water containing 2.5 mL/L of Tween 80 at 10%. The contaminated bean plants are incubated for 24 hours at 20° C. and at 100% relative humidity, and then for 10 days at 20° C. and at 70-80% relative humidity. Grading (% of efficacy) is carried out 11 days after the contamination, in comparison with the control plants.

[1] = log P by HPLC on reversed-phase column (EEC Directive 79/831 Annex V.A8); assay type: physicochemical; settings: for logP: Table 1, HPLC C18, 40° C., 0.1% aqueous formic acid and acetonitrile gradient
Method: In table 1, the log P values were determined in accordance with EEC Directive 79/831 Annex V.A8 by HPLC (High Performance Liquid Chromatography) on a reversed-phase column (C 18), using the method described below: Temperature: 40° C.; Mobile phases: 0.1% aqueous formic acid and acetonitrile; linear gradient from 10% acetonitrile to 90% acetonitrile. Calibration was carried out using unbranched alkan-2-ones (comprising 3 to 16 carbon atoms) with known log P values (determination of the log P values by the retention times using linear interpolation between two successive alkanones). lambda-max-values were determined using UV-spectra from 200 nm to 400 nm and the peak values of the chromatographic signals.

Septoria tritici = assay: Example L: in vivo preventive test on Septoria tritici (wheat); settings: table L; 500 ppm; wheat plants; grading 24 days after contamination
Method: Example L: In Vivo Preventive Test on Septoria tritici (Wheat) […] Wheat plants (“Scipion” variety), sown in starter cups on a 50/50 peat soil pozzolana substrate and grown at 22° C., are treated at the 1 leaf stage (10 cm height) by spraying with the active ingredient prepared as described above. Plants, used as controls, are treated with the mixture of acetone/tween/DMSO/water not containing the active material. After 24 hours, the plants are contaminated by spraying the leaves with an aqueous suspension of cryopreserved Septoria tritici spores (500 000 spores per mL). The contaminated wheat plants are incubated for 72 hours at 18° C. and at 100% relative humidity, and then for 21 days at 90% relative humidity. Grading (% of efficacy) is carried out 24 days after the contamination, in comparison with the control plants.

Puccinia recondita = assay: Example R: in vivo preventive test on Puccinia recondita (brown rust on wheat); settings: table R; 500 ppm; wheat plants; grading 12 days after contamination
Method: Example R: In Vivo Preventive Test on Puccinia recondita (Brown Rust on Wheat) […] Wheat plants (“Scipion” variety), sown in starter cups on a 50/50 peat soil pozzolana substrate and grown at 22° C., are treated at the 1 leaf stage (10 cm height) by spraying with the active ingredient prepared as described above. Plants, used as controls, are treated with the mixture of acetone/tween/DMSO/water not containing the active material. After 24 hours, the plants are contaminated by spraying the leaves with an aqueous suspension of Puccinia recondita spores (100 000 spores per mL). The spores are collected from an infected plant and are suspended in water containing 2.5 mL/L of Tween 80 at 10%. The contaminated wheat plants are incubated for 24 hours at 20° C. and at 100% relative humidity, and then for 10 days at 20° C. and at 70-80% relative humidity. Grading (% of efficacy) is carried out 12 days after the contamination, in comparison with the control plants.

Pyrenophora teres = assay: Example N: in vivo preventive test on Pyrenophora teres (barley); settings: table N; 500 ppm; barley plants; grading 14 days after contamination
Method: Example N: In Vivo Preventive Test on Pyrenophora teres (Barley) […] Barley plants (“Plaisant” variety), sown in starter cups on a 50/50 peat soil pozzolana substrate and grown at 22° C., are treated at the 1 leaf stage (10 cm height) by spraying with the active ingredient prepared as described above. Plants, used as controls, are treated with the mixture of acetone/tween/DMSO/water not containing the active material. After 24 hours, the plants are contaminated by spraying the leaves with an aqueous suspension of Pyrenophora teres spores (12 000 spores per mL). The spores are collected from a 12-day-old culture. The contaminated barley plants are incubated for 48 hours at 20° C. and at 100% relative humidity, and then for 12 days at 20° C. at 70-80% relative humidity. Grading (% of efficacy) is carried out 14 days after the contamination, in comparison with the control plants.

Botrytis cinerea = assay: Example S: in vivo preventive test on Botrytis cinerea (grey mould); settings: table S; 500 ppm; gherkin plants; grading 4 to 5 days after contamination
Method: Example S: In Vivo Preventive Test on Botrytis cinerea (Grey Mould) […] Gherkin plants (“Vert petit de Paris” variety), sown in starter cups on a 50/50 peat soil pozzolana substrate and grown at 24° C., are treated at the Z11 cotyledon stage by spraying with the active ingredient prepared as described above. Plants, used as controls, are treated with the mixture of acetone/tween/DMSO/water not containing the active material. After 24 hours, the plants are contaminated by spraying the cotyledons with an aqueous suspension of cryopreserved Botrytis cinerea spores (50 000 spores per mL). The spores are suspended in a nutrient solution composed of 10 g/L of PDB, 50 g/L of D-Fructose, 2 g/L of NH4NO3 and 1 g/L of KH2PO4. The contaminated gherkin plants are incubated at 17° C. and at 90% relative humidity. Grading (% of efficacy) is carried out 4 to 5 days after the contamination, in comparison with the control plants.

[2] = table G1, 500 ppm, grading 11 days after contamination

logP [1] | chromatographic logP [1] | Compound | Efficacy (Sphaerotheca fuliginea) [%] | Efficacy (Alternaria brassicae) [%] | Efficacy (Uromyces appendiculatus; [2]) [%] | Efficacy (Septoria tritici) [%] | Efficacy (Puccinia recondita) [%] | Efficacy (Pyrenophora teres) [%] | Efficacy (Uromyces appendiculatus; table G2, dose 100 ppm) [%] | Efficacy (Uromyces appendiculatus; table G2, dose 500 ppm) [%] | Efficacy (Botrytis cinerea) [%]
3.83 | – | Cn1nc(C(F)F)c(C(=O)N(CC2CCc3cc(Cl)ccc32)C2CC2)c1F (stereo not shown) [I.12] | 100 | 100 | 100 | 93 | 81 | 100 | 19 | 100 | –
4.39 | – | Cn1nc(C(F)F)c(C(=O)N(CC2CCc3c(Cl)cc(Cl)cc32)C2CC2)c1F (stereo not shown) [I.18] | 100 | 100 | 100 | 93 | 94 | 100 | – | – | –
3.21 | – | Cn1nc(C(F)F)c(C(=O)N(CC2CSCc3ccccc32)C2CC2)c1F (stereo not shown) [I.34] | 90 | 100 | – | 93 | – | 94 | – | – | 100
4.04 | – | Cn1nc(C(F)F)c(C(=O)N(CC2CCc3ccc(C(F)(F)F)cc32)C2CC2)c1Cl (stereo not shown) [I.16] | 100 | – | 100 | 98 | 88 | – | – | – | 100
3.39 | – | Cn1nc(C(F)F)c(C(=O)N(CC2CCc3c(F)cccc32)C2CC2)c1F (stereo not shown) [I.7] | 100 | 97 | 100 | 93 | 94 | 97 | 98 | 100 | –
– | 3.65 | COc1cccc2c1CCCC2CN(C(=O)c1c(C(F)F)nn(C)c1F)C1CC1 (stereo not shown) [I.26, N-cyclopropyl-3-(difluoromethyl)-5-fluoro-N-[(5-methoxy-1,2,3,4-tetrahydronaphthalen-1-yl)methyl]-1-methyl-1H-pyrazole-4-carboxamide] | 100 | 100 | – | – | – | 100 | – | – | 100
3.35 | – | Cn1nc(C(F)F)c(C(=O)N(CC2CCc3ccccc32)C2CC2)c1F (stereo not shown) [I.2] | 100 | 100 | 100 | 100 | 100 | 100 | 88 | 100 | –
3.44 | – | Cn1nc(C(F)F)c(C(=O)N(CC2CCSc3ccc(F)cc32)C2CC2)c1F (stereo not shown) [I.35] | 80 | 88 | 100 | – | 78 | 98 | – | – | 100
4.09 | – | Cn1nc(C(F)F)c(C(=O)N(CC2CCCc3cccc(Cl)c32)C2CC2)c1F (stereo not shown) [I.28] | 100 | 100 | 88 | 100 | – | 94 | – | – | 100
3.76 | – | Cc1ccc2c(c1)CCC2CN(C(=O)c1c(C(F)F)nn(C)c1F)C1CC1 (stereo not shown) [I.6] | 100 | 97 | 100 | 97 | 100 | 100 | 69 | 100 | –

Further lines, the compound ahead of its results:

Compound | logP [1] | chromatographic logP [1] | Efficacy (Sphaerotheca fuliginea) [%] | Efficacy (Alternaria brassicae) [%] | Efficacy (Uromyces appendiculatus; [2]) [%] | Efficacy (Septoria tritici) [%] | Efficacy (Puccinia recondita) [%] | Efficacy (Pyrenophora teres) [%] | Efficacy (Uromyces appendiculatus; table G2, dose 100 ppm) [%] | Efficacy (Uromyces appendiculatus; table G2, dose 500 ppm) [%] | Efficacy (Botrytis cinerea) [%]
Cn1nc(C(F)F)c(C(=O)N(CC2CC(C)(C)c3ccccc32)C2CC2)c1Cl (stereo not shown) [I.10] | 4.08 | – | 100 | 92 | 99 | 79 | 88 | 86 | – | – | –
Cn1nc(C(F)F)c(C(=O)N(CC2CCc3c(Cl)cc(Cl)cc32)C2CC2)c1Cl (stereo not shown) [I.19] | 4.59 | – | – | 92 | 100 | – | 88 | 71 | – | – | –
Cn1nc(C(F)F)c(C(=O)N(CC2CCc3cc(Cl)ccc32)C2CC2)c1Cl (stereo not shown) [I.13] | 3.99 | – | 78 | 75 | – | – | – | 86 | – | – | –
COc1cccc2c1CCCC2CN(C(=S)c1c(C(F)F)nn(C)c1F)C1CC1 (stereo not shown) [I.27] | 4.46 | – | 80 | 93 | – | 97 | – | 71 | – | – | –
Cc1cccc2c1CCC2CN(C(=O)c1c(C(F)F)nn(C)c1Cl)C1CC1 (stereo not shown) [I.4] | 3.87 | – | – | 75 | – | 79 | – | 71 | – | – | –
Cn1nc(C(F)F)c(C(=O)N(CC2CC(C)(C)c3ccccc32)C2CC2)c1F (stereo not shown) [I.9] | 3.94 | – | 100 | 100 | – | 97 | 100 | 97 | 100 | – | –
Cc1ccc2c(c1)CCC2CN(C(=O)c1c(C(F)F)nn(C)c1Cl)C1CC1 (stereo not shown) [I.5] | 3.94 | – | 100 | – | – | – | 75 | 86 | – | – | –
Cn1nc(C(F)F)c(C(=O)N(CC2CCc3ccccc32)C2CC2)c1Cl (stereo not shown) [I.1] | 3.51 | – | 83 | – | 72 | – | 88 | 86 | – | – | –

Reference: patent publication US9686985B2, “Fungicide N-cycloalkyl-N-bicyclicmethylene-carboxamide derivatives” (BAYER INTELLECTUAL PROPERTY GMBH, priority 2012, dated 2017)
